Results published in patent US7160898B2, “Pharmacological treatment for sleep apnea” (Board of Trustees of The University of Illinois, priority 2002, dated 2007).
“Also recorded” adds a separate entry of the source.

Key:
[1] = test system: normalized minute ventilation; experiment: Plethysmographic minute ventilation after GR38032F (Example 2); assay type: in vivo, rat (Sprague-Dawley); conditions: 1 mg/kg i.p., 6 recording hours, vs control; hydrochloride, dihydrate
Procedure: Physiological parameters (see below) from each animal were recorded on 2 occasions in random order, with recordings for an individual animal separated for at least 3 days. Fifteen minutes prior to each recording each animal received a systemic injection (1 ml/kg intraperitoneal bolus injection) of either saline (control) or 1 mg/kg of ondansetron (GR38032F; 1,2,3,9-tetrahydro-9-methyl-3-[(2-methylimidazol-1-yl)methyl]carbazole-4-one, hydrochloride, dihydrate; Glaxo Wellcome, Inc., Research Triangle Park, N.C.). Polygraphic recordings were made from hours 10:00–16:00.
Respiration was recorded by placing each animal, unrestrained, inside a single chamber plethysmograph (PLYUNIR/U; Buxco Electronics, Sharon, Conn.; dimension 6 in.×10 in.×6 in.) ventilated with a bias flow of fresh room air at a rate of 2 L/min. […]
An accepted physiological animal model [rat; Monti, et al., Pharamcol. […] More specifically, sleep apneas, defined as cessation of respiratory effort for at least 2.5 seconds, were scored for each recording session and were associated with the stage of sleep in which they occurred: NREM or REM sleep. […] The events detected represent central apneas because decreased ventilation associated with obstructed or occluded airways would generate an increased plethysmographic signal, rather than a pause. […]

[2] = test system: rat model of spontaneous sleep apnea; experiment: Spontaneous sleep apnea in freely moving rats after GR38032F (Example 2); assay type: in vivo, rat (Sprague-Dawley); conditions: 1 mg/kg i.p.
Procedure: Adult, male Sprague-Dawley rats (Sasco-King, Wilmington, Mass.; usually 8 per test group; 300 g) were maintained on a 12-hour light (08:00–20:00 hour)/12-hour dark (20:00–08:00 hour) cycle for one week, housed in individual cages and given ad libitum access to food and water. Following the one week of acclimatization, animals were subjected to the following surgical procedures.
Acclimatized animals were anesthetized for the implantation of cortical electrodes for electroencephalogram (EEG) recording and neck muscle electrodes for electromyogram (EMG) recording using a mixture of ketamine (Vedco, Inc., St. Joseph, Mo.; 100 mg/ml) and acetylpromazine (Vedco, Inc., St. Joseph, Mo.; 10 mg/ml; 4:1, volume/volume) at a volume of 1 ml/kg body weight. The surface of the skull was exposed surgically and cleaned with a 20% solution of hydrogen peroxide followed by a solution of 95% isopropyl alcohol. Next, a dental preparation of sodium fluoride (Flura-GEL®, Saslow Dental, Mt. Prospect, Ill.) was applied to harden the skull above the parietal cortex and allowed to remain in place for 5 minutes. The fluoride mixture was then removed from the skull above the parietal cortex. The EEG electrodes consisting of four stainless steel machine screws, having leads attached thereto, were threaded into the skull to rest on the dura over the parietal cortex. A thin layer of Justi® resin cement (Saslow Dental, Mt. Prospect, Ill.) was applied to cover the screw heads (of screws implanted in the skull) and surrounding skull to further promote the adhesion of the implant. EMG electrodes consisting of two ball-shaped wires were inserted into the bilateral neck musculature. All leads (i.e., EEG and EMG leads) were soldered to a miniature connector (39F1401, Newark Electronics, Schaumburg, Ill.). Lastly, the entire assembly was fixed to the skull with dental cement.
After surgery, all animals were allowed to recover for one week before being subjected to another surgery that involved implantation of a radiotelemetry transmitter (TA11-PXT, Data Sciences International, St. Paul, Minn.) for monitoring blood pressure (BP) and heart period (HP), estimated as pulse interval. After the animals were anesthetized (as described above), the hair from the subxiphoid space to the pelvis was removed. The entire area was scrubbed with iodine and rinsed with alcohol and saline. A 4–6 cm midline abdominal incision was made to allow good visualization of the area from the bifurcation of the aorta to the renal arteries. A retractor was used to expose the contents of the abdomen and the intestine was held back using saline moistened gauze sponges. The aorta was dissected from the surrounding fat and connective tissues using sterile cotton applicators. A 3-0 silk suture was placed beneath the aorta and traction was applied to the suture to restrict the blood flow. Then the implant (TA11-PXT) was held by forceps while the aorta was punctured just cranial to the bifurcation using a 21-gauge needle bent at the beveled end. The tip of the catheter was inserted under the needle using the needle as a guide until the thin-walled BP sensor section was within the vessel. […]
Physiological parameters (see below) from each animal were recorded on 2 occasions in random order, with recordings for an individual animal separated for at least 3 days. […]

Compound: Cc1nccn1CC1CCc2c(c3ccccc3n2C)C1=O.Cl.O.O (stereo not drawn) [GR38032F, 1,2,3,9-tetrahydro-9-methyl-3-[(2-methylimidazol-1-yl)methyl]carbazole-4-one, hydrochloride, dihydrate]
- normalized minute ventilation during W, NREM and REM sleep [1]: significantly larger; also recorded: significant stimulation of ventilation during all behavioral states
- time for which REM sleep apneas were completely abolished following injection [2]: at least 4 hours
- rate of apneas per hour of REM sleep ([2]; 6 hour recording period, p=0.01 2-way ANOVA): significant suppressant effect
- rate of apneas per hour of NREM sleep ([2]; first 2 hours of recording, paired t-tests p<0.01): significant suppression of apneas
- spontaneous apneas in REM sleep ([2]; first 4 hours of recordings): no animal exhibited a single spontaneous apnea in REM sleep
- rate of apneas per hour of NREM sleep ([2]; whole 6 hours of recording, two-way ANOVA vs saline control): no significant effect of treatment or time over 6 hours
